Reference: US20240051952A1, “HMOX1 INDUCERS” (Mitobridge Inc., priority 2019, published 2024)

Test system: Human Heme Oxygenase-1 (HMOX-1)
Assay: ELISA assay to measure human heme oxygenase-1 (HMOX-1) in HepG2 lysate
Assay type: cell-based
Conditions: fold change of human HMOX1 protein levels relative to DMSO control, HepG2
Protocol: Example 143. ELISA Assay to Measure Human Heme Oxygenase-1 (HMOX-1) in HepG2 lysate
Reagents and Technical Notes:
ELISA capture antibody, standard HO-1, detection antibody and streptavidin HRP were supplied in the DuoSet IC Human total HO-1 ELISA from R&D systems (DYC3776-2). The substrate cocktail was KPL LumiGLO reserve Chemiluminescent Substrate (54-71-00). PBS was Corning Cellgro Cell Culture (21-040-CV). 10×PBS+0.05% tween20 (PBST) was from KPL.
All incubations of the plate were at room temperature (20° C.) in a closed drawer.
The ELISA plate was processed manually. All loadings were with a multichannel pipet. Plates were emptied by shaking into the sink and tapping onto paper towels to remove any remaining reagent. Plate washing was accomplished by loading all wells with PBS+0.05% tween20 (PBST) using a squirt bottle, shaking the PBST out and tapping the plate onto paper towels.
Preparation of the ELISA Plate: • 1. anti-HO-1 capture antibody was 1440 μg/ml after reconstitution in PBS. This antibody was diluted to 8 μg/ml in PBS and 50 μl per well was added to a 384 well greiner “lumitrac 200” plate. Incubated overnight. • 2. The plate was emptied and 100 μl PBS+1% BSA added to all wells. Incubated 90 minutes at room temperature.
Preparation of HepG2 Lysate: • 1. Cells were cultured in a 96-well tissue culture plate washed with PBS and then the plate frozen at −70° C. overnight. Plates were allowed to warm to ice temperature in an ice bucket. 20 μl of PBS, 0.5% Triton X100, 1 mM EDTA with 1×HALT™ protease inhibitors was added to each well and the plates incubated on ice for 1 hour. • 2. The lysates were frozen at −20° C. overnight.
Measurement of HMOX1 (“HO-1”) • 1. In a polypropylene 384 well plate, human HO-1(after reconstitution in PBS+0.5% Triton+1 mM EDTA) was serially diluted from 20 ng/ml 2-fold in PBS+0.5% triton-X100, 1 mM EDTA to make a 12-point standard curve including a zero point. • 2. In a polypropylene 96 well plate, HepG2 lysate was diluted 1 to 20 in Diluent #4 from DUOSET kit in which the assay standard is also diluted. • 3. The PBS+1% BSA was emptied from the ELISA plate and 30 μl of all samples and standards were added (duplicates recommended). The plate was incubated 90 minutes. • 4. Emptied plate and washed 4 times with PBST. • 5. Diluted HO-1 detection antibody to 200 ng/ml in PBS+1% BSA and added 30 μl to all wells. Incubated 90 minutes. • 6. Emptied plate and washed 4 times with PBST. • 7. Added 30 μl streptavidin HRP at 1/200 in PBS+1% BSA (stock streptavidin concentration not specified) to all wells. Incubated 30 minutes. • 8. Emptied plate and washed 4 times with PBST. • 9. Diluted Lumiglo reserve reagent two parts buffer to one part lumiglo substrate. Added 30 μl to all wells. Incubated 5 minutes. • 10. Measured chemiluminescence on spectramax M5 using 150 ms integration.
Table 1 below lists EC50 and fold changes of human HMOX1 protein levels relative to DMSO control upon treatment with representative compounds.

Row | Compound | Maximum Fold induction
1 | Cn1c(Nc2nc3ccccc3o2)nc2cc(C(=O)NCCN3CCCC3)ccc21 [Example 28, 2-(benzo[d]oxazol-2-ylamino)-1-methyl-N-(2-(pyrrolidin-1-yl)ethyl)-1H-benzo[d]imidazole-5-carboxamide] | 41
2 | Cn1c(Nc2nc3ccccc3o2)nc2cc(C(=O)NCCOCC(=O)O)ccc21 [Example 29, 2-(2-(2-(benzo[d]oxazol-2-ylamino)-1-methyl-1H-benzo[d]imidazole-5-carboxamido)ethoxy)acetic acid] | 12
3 | Cn1c(Nc2nc3ccc(C(F)(F)F)cc3o2)nc2cc(C(=O)O)ccc21 [Example 31, 1-methyl-2-((6-(trifluoromethyl)benzo[d]oxazol-2-yl)amino)-1H-benzo[d]imidazole-5-carboxylic acid] | 25-29
4 | Cn1c(Nc2nc3ccc(C(F)(F)F)cc3o2)nc2cc(C(=O)NCCOCCO)ccc21 [Example 34, N-(2-(2-hydroxyethoxy)ethyl)-1-methyl-2-((6-(trifluoromethyl)benzo[d]oxazol-2-yl)amino)-1H-benzo[d]imidazole-5-carboxamide] | 31-36
5 | CC(O)CNC(=O)c1ccc2c(c1)nc(Nc1nc3ccc(C(F)(F)F)cc3o1)n2C (stereo not shown) [Example 35, N-(2-hydroxypropyl)-1-methyl-2-((6-(trifluoromethyl)benzo[d]oxazol-2-yl)amino)-1H-benzo[d]imidazole-5-carboxamide] | 37
6 | Cn1c(Nc2nc3ccc(C(F)(F)F)cc3o2)nc2cc(C(=O)NCCN3CCCC3)ccc21 [Example 36, 1-methyl-N-(2-(pyrrolidin-1-yl)ethyl)-2-((6-(trifluoromethyl)benzo[d]oxazol-2-yl)amino)-1H-benzo[d]imidazole-5-carboxamide] | 42
7 | Cn1c(Nc2nc3ccc(C(F)(F)F)cc3o2)nc2cc(C(=O)NCCN3CCCCC3)ccc21 [Example 37, 1-methyl-N-(2-(piperidin-1-yl)ethyl)-2-((6-(trifluoromethyl)benzo[d]oxazol-2-yl)amino)-1H-benzo[d]imidazole-5-carboxamide] | 28
8 | Cn1c(Nc2nc3ccc(C(F)(F)F)cc3o2)nc2cc(C(=O)NCC(O)CO)ccc21 (stereo not shown) [Example 39, N-(2,3-dihydroxypropyl)-1-methyl-2-((6-(trifluoromethyl)benzo[d]oxazol-2-yl)amino)-1H-benzo[d]imidazole-5-carboxamide] | 56-82
9 | CN(C)CC(=O)NCCNC(=O)c1ccc2c(c1)nc(Nc1nc3ccc(C(F)(F)F)cc3o1)n2C [Example 40, N-(2-(2-(dimethylamino)acetamido)ethyl)-1-methyl-2-((6-(trifluoromethyl)benzo[d]oxazol-2-yl)amino)-1H-benzo[d]imidazole-5-carboxamide] | 56-93
10 | Cn1c(Nc2nc3ccc(C(F)(F)F)cc3o2)nc2cc(C(=O)NCCOCC(=O)O)ccc21 [Example 41, 2-(2-(1-methyl-2-((6-(trifluoromethyl)benzo[d]oxazol-2-yl)amino)-1H-benzo[d]imidazole-5-carboxamido)ethoxy)acetic acid] | 35-39
11 | Cn1c(Nc2nc3ccc(C(F)(F)F)cc3o2)nc2cc(C(=O)NCCOCC(C)(C)O)ccc21 [Example 42, N-(2-(2-hydroxy-2-methylpropoxy)ethyl)-1-methyl-2-((6-(trifluoromethyl)benzo[d]oxazol-2-yl)amino)-1H-benzo[d]imidazole-5-carboxamide] | 39
12 | Cn1c(Nc2nc3cc(C(F)(F)F)ccc3o2)nc2cc(C(=O)NCCOCCO)ccc21 [Example 43, N-(2-(2-hydroxyethoxy)ethyl)-1-methyl-2-((5-(trifluoromethyl)benzo[d]oxazol-2-yl)amino)-1H-benzo[d]imidazole-5-carboxamide] | 56
13 | Cn1cc(NC(=O)c2ccc3c(c2)nc(Nc2nc4ccc(OC(F)(F)F)cc4o2)n3C)cn1 [Example 50, 1-methyl-N-(1-methyl-1H-pyrazol-4-yl)-2-((6-(trifluoromethoxy)benzo[d]oxazol-2-yl)amino)-1H-benzo[d]imidazole-5-carboxamide] | 12-18

More lines, now with the values ahead:

Row | Maximum Fold induction | Compound
14 | 14-50 | COCCNC(=O)c1ccc2c(c1)nc(Nc1nc3ccc(C(F)(F)F)cc3o1)n2C [Example 32, N-(2-methoxyethyl)-1-methyl-2-((6-(trifluoromethyl)benzo[d]oxazol-2-yl)amino)-1H-benzo[d]imidazole-5-carboxamide]
15 | 32-45 | Cn1c(Nc2nc3ccc(C(F)(F)F)cc3o2)nc2cc(C(=O)NCCO)ccc21 [Example 33, N-(2-hydroxyethyl)-1-methyl-2-((6-(trifluoromethyl)benzo[d]oxazol-2-yl)amino)-1H-benzo[d]imidazole-5-carboxamide]
16 | 30 | CC(O)COCCNC(=O)c1ccc2c(c1)nc(Nc1nc3ccc(C(F)(F)F)cc3o1)n2C (stereo not shown) [Example 38, N-(2-(2-hydroxypropoxy)ethyl)-1-methyl-2-((6-(trifluoromethyl)benzo[d]oxazol-2-yl)amino)-1H-benzo[d]imidazole-5-carboxamide]
17 | 10-28 | COCCNC(=O)c1ccc2c(c1)nc(Nc1nc3ccc(OC(F)(F)F)cc3o1)n2C [Example 45, N-(2-methoxyethyl)-1-methyl-2-((6-(trifluoromethoxy)benzo[d]oxazol-2-yl)amino)-1H-benzo[d]imidazole-5-carboxamide]
18 | 14-20 | Cn1c(Nc2nc3ccc(OC(F)(F)F)cc3o2)nc2cc(C(=O)Nc3cn[nH]c3)ccc21 [Example 46, 1-methyl-N-(1H-pyrazol-4-yl)-2-((6-(trifluoromethoxy)benzo[d]oxazol-2-yl)amino)-1H-benzo[d]imidazole-5-carboxamide]
19 | 13-16 | Cn1c(Nc2nc3ccc(OC(F)(F)F)cc3o2)nc2cc(C(=O)NC(CO)(CO)CO)ccc21 [Example 47, N-(1,3-dihydroxy-2-(hydroxymethyl)propan-2-yl)-1-methyl-2-((6-(trifluoromethoxy)benzo[d]oxazol-2-yl)amino)-1H-benzo[d]imidazole-5-carboxamide]
20 | 13-20 | Cn1c(Nc2nc3ccc(OC(F)(F)F)cc3o2)nc2cc(C(=O)NC(CO)CO)ccc21 [Example 48, N-(1,3-dihydroxypropan-2-yl)-1-methyl-2-((6-(trifluoromethoxy)benzo[d]oxazol-2-yl)amino)-1H-benzo[d]imidazole-5-carboxamide]
21 | 14-23 | CN(C)CC(=O)NCCNC(=O)c1ccc2c(c1)nc(Nc1nc3ccc(OC(F)(F)F)cc3o1)n2C [Example 49, N-(2-(2-(dimethylamino)acetamido)ethyl)-1-methyl-2-((6-(trifluoromethoxy)benzo[d]oxazol-2-yl)amino)-1H-benzo[d]imidazole-5-carboxamide]
22 | 30-57 | Cn1c(Nc2nc3ccc(OC(F)(F)F)cc3o2)nc2cc(C(=O)NC3COC3)ccc21 [Example 51, 1-methyl-N-(oxetan-3-yl)-2-((6-(trifluoromethoxy)benzo[d]oxazol-2-yl)amino)-1H-benzo[d]imidazole-5-carboxamide]
23 | 27 | Cn1c(Nc2nc3ccc(OC(F)(F)F)cc3o2)nc2cc(C(=O)NCC3(O)COC3)ccc21 [Example 52, N-((3-hydroxyoxetan-3-yl)methyl)-1-methyl-2-((6-(trifluoromethoxy)benzo[d]oxazol-2-yl)amino)-1H-benzo[d]imidazole-5-carboxamide]
24 | 29-38 | Cn1c(Nc2nc3ccc(OC(F)(F)F)cc3o2)nc2cc(C(=O)NCCO)ccc21 [Example 53, N-(2-hydroxyethyl)-1-methyl-2-((6-(trifluoromethoxy)benzo[d]oxazol-2-yl)amino)-1H-benzo[d]imidazole-5-carboxamide]
25 | 31-37 | Cn1c(Nc2nc3ccc(OC(F)(F)F)cc3o2)nc2cc(C(=O)NCCS(C)(=O)=O)ccc21 [Example 54, 1-methyl-N-(2-(methylsulfonyl)ethyl)-2-((6-(trifluoromethoxy)benzo[d]oxazol-2-yl)amino)-1H-benzo[d]imidazole-5-carboxamide]
